Where two headings read alike, the source gives them in different places.
Experiments:
Type in all cases: cell-based
[1] = molecular target: GluN1(F484A/T518L)/N3B (Rattus norvegicus, UniProt Q8VHN2); assay: Two-electrode voltage-clamp recordings, Xenopus oocytes expressing GluN1; details: for Hill coefficient (nH): inhibition
[2] = molecular target: GluN1(F484A/T518L)/N3A (Rattus norvegicus, UniProt Q9R1M7); assay: as above; details: for voltage dependence of inhibition: current-voltage relationship, inhibition at −60 mV and +30 mV; for Hill coefficient (nH): inhibition
GluN1(F484A/T518L)/N3A, sequence (Q9R1M7 24-1115 isoform Q9R1M7-2, other chains not shown): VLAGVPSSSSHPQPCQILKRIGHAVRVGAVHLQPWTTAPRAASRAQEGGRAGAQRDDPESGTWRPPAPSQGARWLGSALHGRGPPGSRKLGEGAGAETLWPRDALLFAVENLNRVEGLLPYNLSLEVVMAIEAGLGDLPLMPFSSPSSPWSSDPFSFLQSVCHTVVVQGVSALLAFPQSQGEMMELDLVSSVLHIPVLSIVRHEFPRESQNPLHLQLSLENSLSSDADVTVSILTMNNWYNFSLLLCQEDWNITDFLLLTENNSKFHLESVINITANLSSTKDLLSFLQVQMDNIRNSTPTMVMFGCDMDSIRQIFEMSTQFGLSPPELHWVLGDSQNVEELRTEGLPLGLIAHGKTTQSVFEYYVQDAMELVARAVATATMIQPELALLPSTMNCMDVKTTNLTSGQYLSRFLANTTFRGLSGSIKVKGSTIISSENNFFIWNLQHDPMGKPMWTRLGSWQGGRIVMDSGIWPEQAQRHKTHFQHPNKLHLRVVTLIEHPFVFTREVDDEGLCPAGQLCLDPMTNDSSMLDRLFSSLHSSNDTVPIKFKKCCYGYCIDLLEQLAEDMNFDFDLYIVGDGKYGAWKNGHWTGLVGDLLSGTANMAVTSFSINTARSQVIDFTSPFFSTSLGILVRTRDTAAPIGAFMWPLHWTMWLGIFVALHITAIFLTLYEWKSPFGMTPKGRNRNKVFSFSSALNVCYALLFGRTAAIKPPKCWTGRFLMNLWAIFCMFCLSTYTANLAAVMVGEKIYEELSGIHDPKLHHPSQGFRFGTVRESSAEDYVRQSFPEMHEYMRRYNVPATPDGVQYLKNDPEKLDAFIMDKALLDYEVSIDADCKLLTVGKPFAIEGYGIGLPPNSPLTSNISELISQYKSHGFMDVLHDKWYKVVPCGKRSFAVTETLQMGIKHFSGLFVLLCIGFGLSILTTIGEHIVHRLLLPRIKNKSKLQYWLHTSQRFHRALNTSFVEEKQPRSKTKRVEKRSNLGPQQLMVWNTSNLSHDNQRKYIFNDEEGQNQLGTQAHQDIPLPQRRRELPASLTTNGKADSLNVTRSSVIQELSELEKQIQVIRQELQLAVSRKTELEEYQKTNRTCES

[3] = molecular target: GluN1(T518L)/N3A (Rattus norvegicus, UniProt P35439+Q9R1M7, T518L); assay: as above; details: for Hill coefficient (nH): inhibition
GluN1(T518L)/N3A, sequence (Q9R1M7 24-1115 isoform Q9R1M7-2 limits assumed, stated change not applied, other chains not shown): as the sequence (Q9R1M7 24-1115 isoform Q9R1M7-2, other chains not shown) above

[4] = molecular target: GluN1(F484A)/N3A (Rattus norvegicus, UniProt P35439+Q9R1M7, F484A); assay: as above; details: for Hill coefficient (nH): inhibition
GluN1(F484A)/N3A, sequence (Q9R1M7 24-1115 isoform Q9R1M7-2 limits assumed, stated change not applied, other chains not shown): as the sequence (Q9R1M7 24-1115 isoform Q9R1M7-2, other chains not shown) above

[5] = molecular target: GluN1/N2B (Rattus norvegicus, UniProt P35439+Q00960); assay: Two-electrode voltage-clamp recordings, Xenopus oocytes expressing GluN1/N2B
[6] = molecular target: wild-type GluN1/N3B receptors (Rattus norvegicus, UniProt P35439+Q8VHN2)
wild-type GluN1/N3B receptors, sequence (Q8VHN2 25-1002, other chains not shown): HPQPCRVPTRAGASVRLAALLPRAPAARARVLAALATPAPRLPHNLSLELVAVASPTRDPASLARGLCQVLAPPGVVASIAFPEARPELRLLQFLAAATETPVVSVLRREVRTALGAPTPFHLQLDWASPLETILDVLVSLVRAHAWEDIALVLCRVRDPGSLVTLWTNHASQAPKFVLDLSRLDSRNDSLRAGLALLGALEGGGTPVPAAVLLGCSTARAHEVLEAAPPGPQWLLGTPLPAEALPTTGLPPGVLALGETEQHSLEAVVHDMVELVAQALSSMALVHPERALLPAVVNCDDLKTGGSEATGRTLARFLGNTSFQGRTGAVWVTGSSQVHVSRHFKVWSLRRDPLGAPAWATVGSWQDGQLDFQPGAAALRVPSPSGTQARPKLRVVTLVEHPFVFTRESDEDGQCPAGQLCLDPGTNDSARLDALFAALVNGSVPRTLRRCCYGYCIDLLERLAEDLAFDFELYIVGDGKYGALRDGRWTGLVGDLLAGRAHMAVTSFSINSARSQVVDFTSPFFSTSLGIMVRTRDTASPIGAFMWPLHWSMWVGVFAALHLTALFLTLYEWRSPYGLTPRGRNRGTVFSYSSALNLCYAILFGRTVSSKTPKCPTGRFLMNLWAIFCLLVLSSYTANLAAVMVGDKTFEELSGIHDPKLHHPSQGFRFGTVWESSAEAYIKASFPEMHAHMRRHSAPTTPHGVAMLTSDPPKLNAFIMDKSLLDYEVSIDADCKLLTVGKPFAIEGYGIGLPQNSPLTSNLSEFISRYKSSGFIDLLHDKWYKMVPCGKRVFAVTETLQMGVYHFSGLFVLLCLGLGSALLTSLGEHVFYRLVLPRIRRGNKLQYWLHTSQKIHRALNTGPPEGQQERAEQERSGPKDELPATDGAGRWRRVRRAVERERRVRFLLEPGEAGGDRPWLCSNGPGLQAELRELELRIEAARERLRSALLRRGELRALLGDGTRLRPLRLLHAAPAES

[7] = molecular target: GluN1/N2C (Rattus norvegicus, UniProt P35439+Q00961); assay: Two-electrode voltage-clamp recordings, Xenopus oocytes expressing GluN1/N2C
[8] = molecular target: GluN1/N2C (Rattus norvegicus, UniProt P35439); assay: as above; details: co-applied with 100 μM glutamate and 0.5 μM glycine
[9] = molecular target: GluN1/N2A (Rattus norvegicus, UniProt P35439+Q00959); assay: Two-electrode voltage-clamp recordings, Xenopus oocytes expressing GluN1/N2A
[10] = molecular target: GluN1/N2A (Rattus norvegicus, UniProt P35439); assay: as above; details: co-applied with 100 μM glutamate and 0.5 μM glycine
[11] = molecular target: GluN1/N2D (Rattus norvegicus, UniProt P35439+Q62645); assay: Two-electrode voltage-clamp recordings, Xenopus oocytes expressing GluN1/N2D
[12] = molecular target: GluN1/N2D (Rattus norvegicus, UniProt P35439); assay: as above; details: co-applied with 100 μM glutamate and 0.5 μM glycine
[13] = molecular target: GluK2 (Rattus norvegicus, UniProt P42260); assay: Two-electrode voltage-clamp recordings, Xenopus oocytes expressing GluK2
GluK2, sequence (P42260 32-908): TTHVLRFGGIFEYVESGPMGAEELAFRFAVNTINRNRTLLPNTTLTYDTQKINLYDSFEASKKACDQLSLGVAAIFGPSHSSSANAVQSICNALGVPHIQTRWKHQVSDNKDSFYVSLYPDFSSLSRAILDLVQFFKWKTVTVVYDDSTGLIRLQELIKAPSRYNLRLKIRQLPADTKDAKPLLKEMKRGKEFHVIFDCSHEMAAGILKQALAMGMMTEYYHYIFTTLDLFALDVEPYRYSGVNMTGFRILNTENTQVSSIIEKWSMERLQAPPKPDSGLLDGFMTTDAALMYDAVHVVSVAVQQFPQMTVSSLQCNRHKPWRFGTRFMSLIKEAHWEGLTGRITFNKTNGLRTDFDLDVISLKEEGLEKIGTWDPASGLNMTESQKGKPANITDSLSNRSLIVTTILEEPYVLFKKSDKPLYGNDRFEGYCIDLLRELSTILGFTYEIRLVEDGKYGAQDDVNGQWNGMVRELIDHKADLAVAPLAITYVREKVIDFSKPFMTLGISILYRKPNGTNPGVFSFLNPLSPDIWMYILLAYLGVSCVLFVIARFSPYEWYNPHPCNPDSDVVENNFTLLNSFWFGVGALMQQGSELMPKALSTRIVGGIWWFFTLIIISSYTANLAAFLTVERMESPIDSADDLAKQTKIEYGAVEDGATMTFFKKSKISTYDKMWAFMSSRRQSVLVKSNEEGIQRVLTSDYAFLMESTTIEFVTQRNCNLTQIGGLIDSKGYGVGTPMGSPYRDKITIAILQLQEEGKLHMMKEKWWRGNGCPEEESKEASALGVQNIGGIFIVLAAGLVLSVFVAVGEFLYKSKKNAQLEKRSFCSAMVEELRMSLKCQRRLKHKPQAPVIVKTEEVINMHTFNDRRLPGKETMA

[14] = molecular target: GluA1 (Rattus norvegicus, UniProt P19490); assay: Two-electrode voltage-clamp recordings, Xenopus oocytes expressing GluA1
GluA1, sequence (P19490 19-907): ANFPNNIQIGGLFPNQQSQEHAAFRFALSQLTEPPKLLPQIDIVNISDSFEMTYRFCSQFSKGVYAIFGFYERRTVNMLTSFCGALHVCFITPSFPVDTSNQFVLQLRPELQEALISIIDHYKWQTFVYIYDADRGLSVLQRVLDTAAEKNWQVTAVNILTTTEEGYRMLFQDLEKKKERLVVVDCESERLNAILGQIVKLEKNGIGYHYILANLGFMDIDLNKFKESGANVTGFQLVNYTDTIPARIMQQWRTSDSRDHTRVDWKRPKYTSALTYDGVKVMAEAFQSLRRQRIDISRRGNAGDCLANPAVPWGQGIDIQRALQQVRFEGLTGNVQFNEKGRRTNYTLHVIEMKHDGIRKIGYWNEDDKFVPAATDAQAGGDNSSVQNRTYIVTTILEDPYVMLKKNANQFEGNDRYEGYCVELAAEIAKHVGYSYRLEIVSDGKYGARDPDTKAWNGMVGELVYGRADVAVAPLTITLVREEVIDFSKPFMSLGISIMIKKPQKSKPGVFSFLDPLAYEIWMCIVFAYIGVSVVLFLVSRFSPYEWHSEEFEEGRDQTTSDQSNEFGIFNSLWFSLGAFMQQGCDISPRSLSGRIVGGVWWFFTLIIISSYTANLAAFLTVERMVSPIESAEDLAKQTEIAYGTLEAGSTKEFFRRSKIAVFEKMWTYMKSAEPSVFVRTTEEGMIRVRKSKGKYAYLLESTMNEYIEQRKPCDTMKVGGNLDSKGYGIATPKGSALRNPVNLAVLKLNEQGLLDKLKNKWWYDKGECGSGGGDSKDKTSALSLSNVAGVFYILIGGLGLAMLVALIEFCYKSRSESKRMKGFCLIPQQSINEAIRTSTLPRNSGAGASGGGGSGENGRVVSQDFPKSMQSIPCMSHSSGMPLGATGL

[15] = molecular target: GluN1/N2B (Rattus norvegicus, UniProt P35439); assay: Two-electrode voltage-clamp recordings, Xenopus oocytes expressing GluN1/N2B; details: co-applied with 100 μM glutamate and 0.5 μM glycine
[16] = IC50, co-applied with 100 μM glycine, N.E., no significant effect at 300 μM
[17] = read-out: inhibition of current responses to 10 μM glycine
[18] = IC50, co-applied with 100 μM glutamate and 0.5 μM glycine
[19] = co-applied with 100 μM glycine, N.E., no significant effect at 300 μM

GluN1(F484A/T518L)/N3B, sequence (Q8VHN2 25-1002, stated change not applied, other chains not shown): as the sequence (Q8VHN2 25-1002, other chains not shown) above

With `O=C(O)c1cc(C(=O)c2ccc(Cl)cc2Cl)c[nH]1` [TK30, 4-(2,4-dichlorobenzoyl)-1H-pyrrole-2-carboxylic acid] the IC50 [1] was 7.4 µM, the “Hill coefficient (nH)” value ([1]; co-applied with 100 μM glycine) was −1.37 and the IC50 [2, 16] was 14 µM. The “voltage dependence of inhibition” value [2] was “voltage-independent”, the “Hill coefficient (nH)” value ([2]; co-applied with 100 μM glycine) was −1.44 and the IC50 ([2]; pIC50 ± S.E.M., co-applied with 100 μM glycine) was 15.8 µM. The IC50 [3] was 9.8 µM, the Maximal inhibition ([3]; co-applied with 50 μM glycine) was 100% and the “Hill coefficient (nH)” value ([3]; co-applied with 50 μM glycine) was −1.50. The IC50 [4] was 34 µM, the Maximal inhibition ([4]; co-applied with 100 μM glycine) was 100% and the “Hill coefficient (nH)” value ([4]; co-applied with 100 μM glycine) was −1.16. It also gave an IC50 [5] greater than 300 µM, an inhibition at 30 µM [6, 17] of 70 ± 4% and an IC50 [7] of 120 µM. The “Hill coefficient (nH)” value ([8]; inhibition) was −1.77, the IC50 [9] was 270 µM and the “Hill coefficient (nH)” value ([10]; inhibition) was −1.39. The IC50 [11, 18] was 90 µM, the IC50 ([11]; pIC50 ± S.E.M., co-applied with 100 μM glutamate and 0.5 μM glycine) was 79.4 µM and the “Hill coefficient (nH)” value ([12]; inhibition) was −1.83.
`O=c1[nH]c2nonc2nc1O` [TK80, 6-hydroxy-[1,2,5]oxadiazolo[3,4-b]pyrazin-5(4H)-one] was tested, and the IC50 [1] was 79 µM, the Ki [1] was 39 µM and the “voltage dependence of inhibition” value ([1]; current-voltage relationship, inhibition at −60 mV and +30 mV) was “voltage-independent”. The “Hill coefficient (nH)” value ([1]; co-applied with 100 μM glycine) was −1.79, the IC50 [13] was greater than 300 µM and the IC50 [2, 16] was greater than 300 µM. The IC50 [2, 19] was “N.E”, the IC50 [14] was greater than 300 µM and the IC50 [5] was greater than 300 µM. The Ki [5] was greater than 260 µM, the inhibition at 100 µM [6, 17] was 65 ± 4.3% and the IC50 [7] was greater than 300 µM. For the same molecule, the Ki [7] was greater than 260 µM, the IC50 [9] was greater than 300 µM and the Ki [9] was greater than 290 µM. For the same molecule, the Ki [11] was greater than 210 µM and the IC50 [11, 18] was greater than 300 µM.
In the case of `O=C(O)c1cc(Nc2nc(-c3cccnc3)cs2)ccc1O` [TK13], the IC50 ([1]; co-applied with 100 μM glycine) is reported as 49 µM, the “pIC50 ± S.E.M.” value ([1]; co-applied with 100 μM glycine) is reported as 4.3 ± 0.03 and the “Hill coefficient (nH)” value ([1]; co-applied with 100 μM glycine) is reported as −0.77. For the same molecule, the IC50 ([13]; co-applied with 30 μM glutamate, oocytes incubated 5 min in 10 μM concanavalin A) was greater than 300 µM, the “pIC50 ± S.E.M.” value ([2]; co-applied with 100 μM glycine) was 4.2 ± 0.06 and the IC50 [2, 19] was 67 µM. For the same molecule, the “voltage dependence of inhibition” value [2] was “voltage-independent”, the “Hill coefficient (nH)” value ([2]; co-applied with 100 μM glycine) was −1.04 and the IC50 ([3]; co-applied with 50 μM glycine) was 100 µM. For the same molecule, the Maximal inhibition ([3]; co-applied with 50 μM glycine) was 100%, the “pIC50 ± S.E.M.” value ([3]; co-applied with 50 μM glycine) was 4.0 ± 0.05 and the “Hill coefficient (nH)” value ([3]; co-applied with 50 μM glycine) was −1.02. For the same molecule, the IC50 ([4]; co-applied with 100 μM glycine) was 93 µM, the Maximal inhibition ([4]; co-applied with 100 μM glycine) was 100% and the “pIC50 ± S.E.M.” value ([4]; co-applied with 100 μM glycine) was 4.0 ± 0.03. The “Hill coefficient (nH)” value ([4]; co-applied with 100 μM glycine) was −1.04, the IC50 ([14]; co-applied with 30 μM glutamate) was greater than 300 µM and the IC50 [15] was greater than 300 µM. The “inhibition of current responses to 10 μM glycine” value ([6]; 100 μM compound) was 55 ± 3.1%, the IC50 [8] was greater than 300 µM and the IC50 [10] was greater than 300 µM. For the same molecule, the IC50 [12] was greater than 300 µM.

Source: paper PMC3865070 (Neuropharmacology, 2013)
